Where a name gives a salt, the structure may show the parent alone.
What was measured:
[1] = tested on: Digitaria; assay: Pre-emergence test/greenhouse; format: in vivo; conditions: greenhouse, application rate 15 gai/ha, rated after three weeks, 0%=no effect, 100%=total destruction
Procedure, shortened: (§1)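 Pre-emergence soil spray 24 h after sowing; spray volume 1000 L water/ha; acetone/alkylaryl polyglycol ether formulation diluted in water. Scored at 3 weeks as % damage vs untreated (0–100%).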

[2] = tested on: Xanthium; assay: Pre-emergence test/greenhouse; format: in vivo; conditions: Xanthium, 504 h, greenhouse, application rate 15 gai/ha, rated after three weeks, 0%=no effect, 100%=total destruction, read-out: degree of damage to the plants, Xanthium
Procedure, shortened: as §1

[3] = tested on: Galium; assay: Pre-emergence test/greenhouse; format: in vivo; conditions: greenhouse, application rate 15 gai/ha, rated after three weeks, 0%=no effect, 100%=total destruction
Procedure, shortened: as §1

[4] = tested on: Polygonum; assay: Pre-emergence test/greenhouse; format: in vivo; conditions: greenhouse, application rate 15 gai/ha, rated after three weeks, 0%=no effect, 100%=total destruction
Procedure, shortened: as §1

[5] = tested on: Lolium; assay: Pre-emergence test/greenhouse; format: in vivo; conditions: greenhouse, application rate 15 gai/ha, rated after three weeks, 0%=no effect, 100%=total destruction; for pest or weed control at 15 g/ha: Lolium, 504 h, read-out: degree of damage to the plants, Lolium
Procedure, shortened: as §1

[6] = tested on: Matricaria; assay: Pre-emergence test/greenhouse; format: in vivo; conditions: Matricaria, 504 h, greenhouse, application rate 15 gai/ha, rated after three weeks, 0%=no effect, 100%=total destruction, read-out: degree of damage to the plants, Matricaria
Procedure, shortened: as §1

[7] = tested on: Setaria; assay: Pre-emergence test/greenhouse; format: in vivo; conditions: greenhouse, application rate 15 gai/ha, rated after three weeks, 0%=no effect, 100%=total destruction
Procedure, shortened: as §1

[8] = tested on: Solanum; assay: Pre-emergence test/greenhouse; format: in vivo; conditions: greenhouse, application rate 15 gai/ha, rated after three weeks, 0%=no effect, 100%=total destruction
Procedure, shortened: as §1

[9] = tested on: wheat; assay: Pre-emergence test/greenhouse; format: in vivo; conditions: Triticum aestivum, 504 h, greenhouse, application rate 15 gai/ha, rated after three weeks, 0%=no effect, 100%=total destruction, read-out: degree of damage to the plants, wheat
Procedure, shortened: as §1

[10] = tested on: Alopecurus; assay: Pre-emergence test/greenhouse; format: in vivo; conditions: greenhouse, application rate 15 gai/ha, rated after three weeks, 0%=no effect, 100%=total destruction
Procedure, shortened: as §1

[11] = tested on: Stellaria; assay: Pre-emergence test/greenhouse; format: in vivo; conditions: greenhouse, application rate 15 gai/ha, rated after three weeks, 0%=no effect, 100%=total destruction; for pest or weed control at 15 g/ha: Stellaria, 504 h, read-out: degree of damage to the plants, Stellaria
Procedure, shortened: as §1

[12] = tested on: Chenopodium; assay: Pre-emergence test/greenhouse; format: in vivo; conditions: greenhouse, application rate 15 gai/ha, rated after three weeks, 0%=no effect, 100%=total destruction
Procedure, shortened: as §1

[13] = tested on: Bromus; assay: Pre-emergence test/greenhouse; format: in vivo; conditions: greenhouse, application rate 15 gai/ha, rated after three weeks, 0%=no effect, 100%=total destruction
Procedure, shortened: as §1

[14] = tested on: soybeans; assay: Pre-emergence test/greenhouse; format: in vivo; conditions: greenhouse, application rate 15 gai/ha, rated after three weeks, 0%=no effect, 100%=total destruction
Procedure, shortened: as §1

[15] = tested on: maize; assay: Pre-emergence test/greenhouse; format: in vivo; conditions: Zea mays, 504 h, greenhouse, application rate 15 gai/ha, rated after three weeks, 0%=no effect, 100%=total destruction, read-out: degree of damage to the plants, maize
Procedure, shortened: as §1

[16] = tested on: Avena fatua; assay: Pre-emergence test/greenhouse; format: in vivo; conditions: greenhouse, application rate 15 gai/ha, rated after three weeks, 0%=no effect, 100%=total destruction
Procedure, shortened: as §1

[17] = tested on: Digitaria; assay: Post-emergence test/greenhouse; format: in vivo; conditions: greenhouse, application rate 15 gai/ha, rated after three weeks, 0%=no effect, 100%=total destruction
Procedure, shortened: (§2)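 Read-out: % damage relative to untreated control, scored three weeks post-spray; 0% = no effect, 100% = total destruction. Plants at 5-15 cm height were sprayed post-emergence with acetone/alkylaryl polyglycol ether formulations diluted in water, applied in 1000 l water/ha.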

[18] = tested on: Xanthium; assay: Post-emergence test/greenhouse; format: in vivo; conditions: greenhouse, application rate 15 gai/ha, rated after three weeks, 0%=no effect, 100%=total destruction
Procedure, shortened: as §2

[19] = tested on: Echinochloa; assay: Post-emergence test/greenhouse; format: in vivo; conditions: greenhouse, application rate 15 gai/ha, rated after three weeks, 0%=no effect, 100%=total destruction
Procedure, shortened: as §2

[20] = tested on: Polygonum; assay: Post-emergence test/greenhouse; format: in vivo; conditions: greenhouse, application rate 15 gai/ha, rated after three weeks, 0%=no effect, 100%=total destruction
Procedure, shortened: as §2

[21] = tested on: Lolium; assay: Post-emergence test/greenhouse; format: in vivo; conditions: greenhouse, application rate 15 gai/ha, rated after three weeks, 0%=no effect, 100%=total destruction
Procedure, shortened: as §2

[22] = tested on: Setaria; assay: Post-emergence test/greenhouse; format: in vivo; conditions: greenhouse, application rate 15 gai/ha, rated after three weeks, 0%=no effect, 100%=total destruction
Procedure, shortened: as §2

[23] = tested on: wheat; assay: Post-emergence test/greenhouse; format: in vivo; conditions: greenhouse, application rate 15 gai/ha, rated after three weeks, 0%=no effect, 100%=total destruction
Procedure, shortened: as §2

[24] = tested on: Alopecurus; assay: Post-emergence test/greenhouse; format: in vivo; conditions: greenhouse, application rate 15 gai/ha, rated after three weeks, 0%=no effect, 100%=total destruction
Procedure, shortened: as §2

[25] = tested on: rape; assay: Post-emergence test/greenhouse; format: in vivo; conditions: greenhouse, application rate 15 gai/ha, rated after three weeks, 0%=no effect, 100%=total destruction
Procedure, shortened: as §2

[26] = tested on: Chenopodium; assay: Post-emergence test/greenhouse; format: in vivo; conditions: greenhouse, application rate 15 gai/ha, rated after three weeks, 0%=no effect, 100%=total destruction
Procedure, shortened: as §2

[27] = tested on: Bromus; assay: Post-emergence test/greenhouse; format: in vivo; conditions: greenhouse, application rate 15 gai/ha, rated after three weeks, 0%=no effect, 100%=total destruction
Procedure, shortened: as §2

[28] = tested on: maize; assay: Post-emergence test/greenhouse; format: in vivo; conditions: greenhouse, application rate 15 gai/ha, rated after three weeks, 0%=no effect, 100%=total destruction
Procedure, shortened: as §2

[29] = tested on: Datura; assay: Post-emergence test/greenhouse; format: in vivo; conditions: greenhouse, application rate 15 gai/ha, rated after three weeks, 0%=no effect, 100%=total destruction
Procedure, shortened: as §2

[30] = tested on: Viola; assay: Post-emergence test/greenhouse; format: in vivo; conditions: greenhouse, application rate 15 gai/ha, rated after three weeks, 0%=no effect, 100%=total destruction
Procedure, shortened: as §2

[31] = tested on: Avena fatua; assay: Post-emergence test/greenhouse; format: in vivo; conditions: greenhouse, application rate 15 gai/ha, rated after three weeks, 0%=no effect, 100%=total destruction
Procedure, shortened: as §2

[32] = tested on: Amaranthus; assay: Pre-emergence test/greenhouse; format: in vivo; conditions: greenhouse, application rate 15 gai/ha, rated after three weeks, 0%=no effect, 100%=total destruction
Procedure, shortened: as §1

[33] = tested on: weeds; assay: Post-emergence test, summary for weeds; format: in vivo
Procedure, shortened: as §2

[34] = tested on: weeds; assay: Pre-emergence test, summary for weeds; format: in vivo
Procedure, shortened: as §1

[35] = tested on: crop plants such as, for example, maize, oilseed rape and wheat; assay: Post-emergence test, summary for crop plants; format: in vivo
Procedure, shortened: as §2

[36] = tested on: crop plants, such as, for example, maize, soyabean and wheat; assay: Pre-emergence test, summary for crop plants; format: in vivo
Procedure, shortened: as §1

SMILES	pest or weed control at 15 g/ha [2]	degree of damage to the plants, Galium [3]	pest or weed control at 15 g/ha [5]	pest or weed control at 15 g/ha [6]	degree of damage to the plants, Setaria [7]	degree of damage to the plants, Solanum [8]	plant injury at 15 g/ha [9]	pest or weed control at 15 g/ha [11]	degree of damage to the plants, Bromus [13]	plant injury at 15 g/ha [15]	degree of damage to the plants, Avena fatua [16]	degree of damage to the plants, Xanthium [18]	degree of damage to the plants, Echinochloa [19]	degree of damage to the plants, Polygonum [20]	degree of damage to the plants, Lolium [21]	degree of damage to the plants, wheat [23]	degree of damage to the plants, Alopecurus [24]	degree of damage to the plants, maize [28]	degree of damage to the plants, Datura [29]	degree of damage to the plants, Amaranthus [32]	other results
CCOC(=O)c1csc(C)c1S(=O)(=O)NC(=O)n1nc(OC)n(C)c1=O (as salt: sodium) [Example 1, ethyl 4-[[[(3-methoxy-4-methyl-5-oxo-1H-1,2,4-triazol-1-yl)carbonyl]amino]sulfonyl]-5-methyl-3-thiophenecarboxylate]																					melting point: 220 °C
CCCOc1nn(C(=O)NS(=O)(=O)c2c(C(=O)OC)csc2C)c(=O)n1C [(A), methyl 4-[[[(4,5-dihydro-4-methyl-5-oxo-3-n-propoxy-1H-1,2,4-triazol-1-yl)carbonyl]-amino]sulfonyl]-5-methyl-3-thiophenecarboxylate, reference compound]	0%	10%	0%	50%	0%	80%	0%	80%	60%	0%	0%	70%	60%	50%	30%	0%	70%	30%	50%		degree of damage to the plants, Digitaria [1]: 0%; degree of damage to the plants, Polygonum [4]: 0%; degree of damage to the plants, Alopecurus [10]: 60%; degree of damage to the plants, Chenopodium [12]: 50%; degree of damage to the plants, soybeans [14]: 0%; degree of damage to the plants, Digitaria [17]: 10%; degree of damage to the plants, Setaria [22]: 30%; degree of damage to the plants, rape [25]: 95%; degree of damage to the plants, Chenopodium [26]: 80%; degree of damage to the plants, Bromus [27]: 50%; degree of damage to the plants, Viola [30]: 30%; degree of damage to the plants, Avena fatua [31]: 30%
CCCOc1nn(C(=O)NS(=O)(=O)c2c(C(=O)OC)csc2C)c(=O)n1C1CC1 [(B), methyl 4-[[[(4-cyclopropyl-4,5-dihydro-5-oxo-3-n-propoxy-1H-1,2,4-triazol-1-yl)-carbonyl]amino]sulfonyl]-5-methyl-3-thiophenecarboxylate, reference compound]	0%	20%	20%	40%	40%	80%	0%	60%	40%	0%	10%	50%		70%	60%	30%	0%	90%	80%	80%	degree of damage to the plants, Digitaria [1]: 0%; degree of damage to the plants, Polygonum [4]: 50%; degree of damage to the plants, Alopecurus [10]: 20%; degree of damage to the plants, Chenopodium [12]: 40%; degree of damage to the plants, soybeans [14]: 0%; degree of damage to the plants, Digitaria [17]: 20%; degree of damage to the plants, Setaria [22]: 60%; degree of damage to the plants, Bromus [27]: 50%; degree of damage to the plants, Avena fatua [31]: 50%
CCOC(=O)c1csc(C)c1S(=O)(=O)NC(=O)n1nc(OC)n(C)c1=O [Example 1, ethyl 4-[[[(3-methoxy-4-methyl-5-oxo-1H-1,2,4-triazol-1-yl)carbonyl]amino]sulfonyl]-5-methyl-3-thiophenecarboxylate]	95%		90%	100%		100%	0%	100%	95%	0%		95%	90%	95%	90%	0%		0%	95%	100%	activity against weeds compared with the known compounds (A) and (B) [33]: considerably stronger activity against weeds; activity against weeds compared with the known compounds (A) to (G) [34]: considerably stronger activity against weeds; compatibility with crop plants compared with the known compounds (A) and (B) [35]: substantially better compatibility with crop plants; degree of damage to the plants, Viola [30]: 95%; melting point: 176 °C; tolerance by crop plants [36]: tolerated well by crop plants
CCCc1nn(C(=O)NS(=O)(=O)c2c(C(=O)OC)csc2C)c(=O)n1OC [Example 42]		100%			95%				95%		90%		90%		90%		90%			100%	degree of damage to the plants, Lolium [5]: 95%; degree of damage to the plants, Stellaria [11]: 100%; activity against weeds compared with the known compounds (A) and (B) [33]: considerably stronger activity against weeds; activity against weeds compared with the known compounds (A) to (G) [34]: considerably stronger activity against weeds; compatibility with crop plants compared with the known compounds (A) and (B) [35]: substantially better compatibility with crop plants; degree of damage to the plants, rape [25]: 0%; degree of damage to the plants, Chenopodium [26]: 95%; tolerance by crop plants [36]: tolerated well by crop plants
